This assay deals with T1, hYAK3 (Homo sapiens, UniProt O43781).
T1 construct: containing amino acid residues 124-526 of human YAK3; GST (N); His6 (C); made in house; host or cells: baculovirus expression system in Sf9 cells
T1 sequence (O43781 124-526): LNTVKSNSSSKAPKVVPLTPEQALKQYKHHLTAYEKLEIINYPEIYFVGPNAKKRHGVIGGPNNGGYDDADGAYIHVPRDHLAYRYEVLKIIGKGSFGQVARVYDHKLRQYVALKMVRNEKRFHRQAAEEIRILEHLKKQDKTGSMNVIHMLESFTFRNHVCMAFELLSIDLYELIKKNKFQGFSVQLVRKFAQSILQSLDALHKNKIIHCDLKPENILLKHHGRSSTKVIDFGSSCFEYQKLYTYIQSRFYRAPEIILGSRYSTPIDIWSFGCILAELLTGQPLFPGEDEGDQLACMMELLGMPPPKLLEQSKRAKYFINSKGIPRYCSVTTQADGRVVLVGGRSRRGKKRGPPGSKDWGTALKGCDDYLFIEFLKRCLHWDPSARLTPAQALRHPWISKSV
In words: YAK3 Scintillation Proximity Assay using Ser164 of myelin basic protein as the phosphoacceptor (kinase assay of purified hYAK3). It counts as biochemical. The note with it: purified GST-hYak3-His6 (residues 124-526), 4 nM; 0.001 mM ATP; 4 μM Ser164 peptide; 2 hours at room temperature; compounds 50 μM to 0.5 nM. As for the experimental part:
YAK3 Scintillation Proximity Assays Using Ser164 of Myelin Basic Protein as the Phosphoacceptor
Source of Ser164 Substrate Peptide:
The biotinylated Ser164, S164A peptide(Biotinyl -LGGRDSRAGS*PMARR—OH), sequence derived from the C-terminus of bovine myelin basic protein (MBP) with Ser162 substituted as Ala162, was purchased from California Peptide Research Inc. (Napa, Calif.), and its purity was determined by HPLC. Phosphorylation occurs at position 164 (marked S* above). The calculated molecular mass of the peptide was 2166 dalton. Solid sample was dissolved at 10 mM in DMSO, aliquoted, and stored at −20° C. until use.
hYAK3: Glutathione-S-Transferase (GST)-hYak3-His6 containing amino acid residues 124-526 of human YAK3 was purified from baculovirus expression system in Sf9 cells using Glutathione Sepharose 4B column chromatography followed by Ni-NTA-Agarose column chromatography. Purity greater than 65% typically was achieved. Samples, in 50 mM Tris, 150 mM NaCl, 10% glycerol, 0.1% Triton, 250 mM imidazole, 10 mM β-mercapto ethanol, pH 8.0.—
were stored at −80° C. until use.
Kinase Assay of Purified hYAK3:
Assays were performed in 96 well (Costar, Catalog No. 3789) or 384 well plates (Costar, Catalog No. 3705). Reaction (in 20, 25, or 40 μl volume) mix contained in final concentrations 25 mM Hepes buffer, pH 7.4; 10 mM MgCl2; 10 mM β-mercapto ethanol; 0.0025% Tween-20; 0.001 mM ATP, 0.1 ? Ci of [ ? -^33P]ATP; purified hYAK3 (7-14 ng/assay; 4 nM final); and 4 μM Ser164 peptide. Compounds, titrated in DMSO, were evaluated at concentrations ranging from 50 μM to 0.5 nM. […] Reactions were incubated for 2 hours at room temperature and were stopped by a 75 ul addition of […] Streptavidin Scintillation Proximity beads (Amersham Pharmacia Biotech, Catalog No. RPNQ 0007) in PBS, pH 7.4, 10 mM EDTA, 0.1% Triton X-100, 1 mM ATP. Under the assay conditions defined above, the Km(apparent) for ATP was determined to be 7.2+/−2.4 μM. Assay results are depicted in Table 1.
(Scintillation proximity formats need no separation of bound from free tracer.)

Each structure is given as a SMILES string. Counter-ions that a name gives are not always drawn.

IC50 data for nine compounds are collected here from patent publication US7482455B2, “Chemical compounds” (SmithKline Beecham Corporation, priority 2002, dated 2009).

Broadly, the IC50 is the concentration at which inhibition is half-maximal.

Compound `COc1ccc2cc(C(=O)O)c(NCCCNC(=O)OC(C)(C)C)nc2c1` [Example 1, 2-(3-tert-butoxycarbonylamino-propylamino)-7-methoxy-quinoline-3-carboxylic acid] yielded an IC50 of 1000 to 10000 nM. To `COc1ccc2cc(C(=O)O)c(NCCCN)nc2c1` [Example 2, 2-(3-amino-propylamino)-7-methoxy-quinoline-3-carboxylic acid] belongs under 1000 nM; to `COc1ccc2cc(C(=O)O)c(NCc3ccccc3)nc2c1` [Example 3, 2-benzylamino-7-methoxy-quinoline-3-carboxylic acid], under 1000 nM.

With `COc1ccc2cc(C(=O)O)c(NCCc3ccccc3)nc2c1` [Example 4, 7-methoxy-2-phenethylamino-quinoline-3-carboxylic acid], the half-inhibitory concentration (IC50) is under 1000 nM. To `COc1ccc2cc(C(=O)O)c(NCCc3ccncc3)nc2c1` [Example 5, 7-methoxy-2-(2-pyridin-4-yl-ethylamino)-quinoline-3-carboxylic acid] belongs under 1000 nM; to `COc1ccc2cc(C(=O)O)c(NCCN(C)C)nc2c1` [Example 6, 2-(2-dimethylamino-ethylamino)-7-methoxy-quinoline-3-carboxylic acid hydrochloride], under 1000 nM. To `COc1ccc2cc(C(=O)O)c(NC3Cc4ccccc4C3)nc2c1` [Example 7, 2-(indan-2-ylamino)-7-methoxy-quinoline-3-carboxylic acid] belongs under 1000 nM; to `COc1ccc2cc(C(=O)O)c(NCCCN3CCOCC3)nc2c1` [Example 8, 7-methoxy-2-(3-morpholin-4-yl-propylamino)-quinoline-3-carboxylic acid], 1000 to 10000 nM. To `O=C(O)c1cc2ccc(O)cc2nc1Nc1ccccc1Cl` [Example 12, 2-(2-Chloro-phenylamino)-7-hydroxy-quinoline-3-carboxylic acid] belongs under 1000 nM.
